# Patent US20240166643A1, “IMIDAZO[1,2-A]PYRIDINE COMPOUNDS AND THEIR USE IN THERAPY” (Imperial College Innovations Limited, priority 2020, published 2024)
# Like-named read-outs stand apart in the source and are kept apart here. Marks after values point to notes of the source that are not given here.
# Columns and labels:
# [1] = tested on: P. falciparum Pf3D7^0087/N9; experiment: Mouse malaria model, NODscidIL2Rγnull mice engrafted with human erythrocytes; details: for average parasitemia values: 50 mg/kg po per day on day 3, 4, 5 and 6 post-infection
# [2] = molecular target: Plasmodium vivax (Pv) NMT (Plasmodium vivax (strain Salvador I), UniProt A5K1A2); experiment: biochemical
# Chain of Plasmodium vivax (Pv) NMT (A5K1A2 1-410): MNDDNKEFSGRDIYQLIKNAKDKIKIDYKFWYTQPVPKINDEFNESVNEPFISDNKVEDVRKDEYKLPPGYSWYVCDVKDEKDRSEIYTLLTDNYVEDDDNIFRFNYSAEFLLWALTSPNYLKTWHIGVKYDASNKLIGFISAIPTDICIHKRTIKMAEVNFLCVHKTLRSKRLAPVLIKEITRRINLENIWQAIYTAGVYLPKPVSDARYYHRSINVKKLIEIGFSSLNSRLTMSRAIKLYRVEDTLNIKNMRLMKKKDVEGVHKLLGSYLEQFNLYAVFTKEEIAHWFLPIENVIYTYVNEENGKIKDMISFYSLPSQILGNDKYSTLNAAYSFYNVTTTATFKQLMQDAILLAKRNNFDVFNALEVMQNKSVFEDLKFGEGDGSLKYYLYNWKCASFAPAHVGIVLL
# [3] = tested on: Plasmodium falciparum strain NF54; experiment: SYBR Green assay, Plasmodium falciparum strain NF54; details: NF54, read-out: Pf EC50 strain NF54
# [4] = tested on: Plasmodium falciparum 3D7; experiment: SYBR Green assay, Plasmodium falciparum strain 3D7; assay type: cell-based; details: P. falciparum strain 3D7, 96 h incubation, read-out: Pf EC50 strain 3D7
# in vitro = details: male, Sprague-Dawley, rat, pooled cryopreserved rat hepatocytes, pH 7.4
# Human NMT1 (HsNMT1) = Human NMT1 (HsNMT1) (Homo sapiens, UniProt P30419); experiment: biochemical
# Chain of Human NMT1 (HsNMT1) (P30419 whole entry, looked up): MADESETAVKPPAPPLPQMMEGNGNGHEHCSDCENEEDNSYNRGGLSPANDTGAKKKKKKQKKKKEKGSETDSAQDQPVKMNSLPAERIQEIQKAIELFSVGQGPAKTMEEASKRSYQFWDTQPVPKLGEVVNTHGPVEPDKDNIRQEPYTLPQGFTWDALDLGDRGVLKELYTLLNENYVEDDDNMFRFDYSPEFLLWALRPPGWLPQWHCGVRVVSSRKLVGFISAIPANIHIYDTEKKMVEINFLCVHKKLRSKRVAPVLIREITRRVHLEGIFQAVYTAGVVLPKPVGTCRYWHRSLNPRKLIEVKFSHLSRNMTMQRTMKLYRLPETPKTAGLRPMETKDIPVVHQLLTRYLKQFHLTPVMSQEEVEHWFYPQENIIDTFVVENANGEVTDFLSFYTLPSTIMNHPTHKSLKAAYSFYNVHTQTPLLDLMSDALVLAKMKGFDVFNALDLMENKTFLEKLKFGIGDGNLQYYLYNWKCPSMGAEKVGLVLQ
# [5] = Rat clearance and bioavailability (iv and oral dosing); assay type: in vivo; details: male, Sprague-Dawley, plasma; for half-life: iv 1 mg/kg, read-out: Rat iv t1/2 (converted)
# [6] = oral 5 mg/kg, cassette dosing of 4 compounds
SMILES,IC50 [2] [nM],EC50 [4] [nM],half-life at 1 µM (in vitro) [h],IC50 (Human NMT1 (HsNMT1)) [nM],also measured
"CCN(CC)CCCC(C)Nc1ccnc2cc(Cl)ccc12 (centres unmarked) [Chloroquine (CQ), chloroquine, reference compound]",–,–,–,–,average parasitemia values ([1]; day 0 post infection): 0.01%; average parasitemia values ([1]; day 3 post infection): 0.80%; average parasitemia values ([1]; day 4 post infection): 0.24%; average parasitemia values ([1]; day 5 post infection): 0.05%; average parasitemia values ([1]; day 6 post infection): 0.01%; average parasitemia values ([1]; day 7 post infection): 0.00* %
O=C(NCc1cnc2ccccn12)C1CN(c2nc(N3CCCNCC3)ncc2F)C1 [Example 6],130,–,–,–,EC50 [3]: > 10000 nM
COc1cnc(N2CCCNCC2)nc1N1CC(C(=O)NCc2cnc3ccccn23)C1 [Example 19],59,–,–,–,EC50 [3]: 3600 nM
O=C(NCc1cnc2cc(Cl)ccn12)C1CN(c2nc(N3CCCNCC3)ncc2Cl)C1 [Example 22],3.8,–,–,–,EC50 [3]: 450 nM
O=C(NCc1cnc2ccccn12)C1CN(c2nc(N3CCNCC3)ncc2Cl)C1 [Example 25],15,–,–,–,EC50 [3]: 1090 nM
C[C@H]1CN(c2ncc(F)c(N3CC(C(=O)NCc4cnc5ccccn45)C3)n2)CCN1 [Example 26],240,–,–,–,EC50 [3]: > 2330 nM
C[C@H]1CN(c2ncc(Cl)c(N3CC(C(=O)NCc4cnc5ccccn45)C3)n2)CCN1 [Example 27],37,–,–,–,EC50 [3]: 2820 nM
CC1CN(c2ncc(F)c(N3CC(C(=O)NCc4cnc5ccccn45)C3)n2)CCN1 (centres unmarked) [Example 28],95,–,–,–,EC50 [3]: 3040 nM
C[C@@H]1CN(c2ncc(F)c(N3CC(C(=O)NC(C)(C)c4cnc5ccccn45)C3)n2)C[C@H](C)N1 [Example 44],32,540,> 3,120,–
Cc1ccc2ncc(C(C)(C)NC(=O)C3CN(c4nc(N5CCN(C)CC5)ncc4F)C3)n2c1 [Example 60],110,240,2.41,–,–
CN1CCN(c2ncc(F)c(N3CC(C(=O)NC(C)(C)c4cnc5c(F)cccn45)C3)n2)CC1 [Example 61],13,260,> 3,–,–
CN1CCN(c2ncc(F)c(N3CC(C)(C(=O)NC(C)(C)c4cnc5ccccn45)C3)n2)CC1 [Example 65],90,> 1000,2.41,–,–
Cc1cnc(N2CCN(C)CC2)nc1N1CC(C(=O)NC(C)(C)c2cnc3ccccn23)C1 [Example 66],29,320,> 3,–,–
Cc1ccc2ncc(C(C)(C)NC(=O)C3CN(c4nc(N5CCN(C)CC5)ncc4Cl)C3)n2c1 [Example 67],5.6,120,> 3,–,–
CCN1CCN(c2ncc(Cl)c(N3CC(C(=O)NC(C)(C)c4cnc5ccccn45)C3)n2)CC1 [Example 70],8.6,410,> 3,–,–
CC(C)N1CCN(c2ncc(Cl)c(N3CC(C(=O)NC(C)(C)c4cnc5ccccn45)C3)n2)CC1 [Example 71],11,560,> 3,72,–
COCCN1CCN(c2ncc(Cl)c(N3CC(C(=O)NC(C)(C)c4cnc5ccccn45)C3)n2)CC1 [Example 72],7.7,> 590,> 3,82,"half-life ([5]; cassette dosing of 4 compounds): 2.7 h; bioavailability [5, 6]: 34%"

SMILES,IC50 [2] [nM],EC50 [4] [nM],half-life at 1 µM (in vitro) [h],IC50 (Human NMT1 (HsNMT1)) [nM],also measured
CN1CCN(c2ncc(Cl)c(N3CC(C(=O)N(C)C(C)(C)c4cnc5ccccn45)C3)n2)CC1 [Example 73],–,810,> 3,–,"half-life ([5]; cassette dosing of 4 compounds): 3.6 h; bioavailability [5, 6]: 65%"
CC1CN(c2ncc(Cl)c(N3CC(C(=O)N(C)C(C)(C)c4cnc5ccccn45)C3)n2)CCN1C (centres unmarked) [Example 74],–,120,> 3,–,"half-life ([5]; administered as a single compound): 2.2 h; bioavailability ([5]; oral 10 mg/kg, administered as a single compound): 28%"
CN1CCN(c2ncc(Cl)c(N3CCC(C(=O)NC(C)(C)c4cnc5ccccn45)CC3)n2)CC1 [Example 77],74,> 1000,1.49,–,–
CN1CCN(c2ncc(F)c(N3CC(C(=O)N(C)C(C)(C)c4cnc5ccccn45)C3)n2)CC1 [Example 78],120,> 1000,> 3,400,"half-life ([5]; cassette dosing of 4 compounds): 2.3 h; bioavailability [5, 6]: 73%"
COCC1CN(c2ncc(Cl)c(N3CC(C(=O)NC(C)(C)c4cnc5ccccn45)C3)n2)CCN1C (centres unmarked) [Example 80],7.9,97,0.743,23,–
"C[C@@H]1CN(c2ncc(F)c(N3CC(C(=O)NC(C)(C)c4cnc5ccccn45)C3)n2)CCN1C [Example 84, 1-{2-[(3R)-3,4-dimethylpiperazin-1-yl]-5-fluoropyrimidin-4-yl}-N-(2-{imidazo[1,2-a]pyridin-3-yl}propan-2-yl)azetidine-3-carboxamide]",4.6,34,2.41,33,–
"COc1cnc(N2CCN(C)[C@@H](C)C2)nc1N1CC(C(=O)NC(C)(C)c2cnc3ccccn23)C1 [Example 85, 1-{2-[(3S)-3,4-dimethylpiperazin-1-yl]-5-methoxypyrimidin-4-yl}-N-(2-{imidazo[1,2-a]pyridin-3-yl}propan-2-yl)azetidine-3-carboxamide]",8,14,> 3,6.3,–
"COc1cnc(N2C[C@@H](C)N(C)[C@@H](C)C2)nc1N1CC(C(=O)NC(C)(C)c2cnc3ccccn23)C1 [Example 88, N-(2-{imidazo[1,2-a]pyridin-3-yl}propan-2-yl)-1-{5-methoxy-2-[(3R,5S)-3,4,5-trimethylpiperazin-1-yl]pyrimidin-4-yl}azetidine-3-carboxamide]",–,76,> 3,–,–
"C[C@@H]1CN(c2ncc(Cl)c(N3CC(C(=O)NC(C)(C)c4cnc5ccccn45)C3)n2)C[C@H](C)N1C [Example 89, 1-{5-chloro-2-[(3R,5S)-3,4,5-trimethylpiperazin-1-yl]pyrimidin-4-yl}-N-(2-{imidazo[1,2-a]pyridin-3-yl}propan-2-yl)azetidine-3-carboxamide]",12,88,> 3,27,–
"C[C@@H]1CN(c2ncc(F)c(N3CC(C(=O)NC(C)(C)c4cnc5ccccn45)C3)n2)C[C@H](C)N1C [Example 90, 1-{5-fluoro-2-[(3R,5S)-3,4,5-trimethylpiperazin-1-yl]pyrimidin-4-yl}-N-(2-{imidazo[1,2-a]pyridin-3-yl}propan-2-yl)azetidine-3-carboxamide]",19,300,> 3,94,–
"C[C@H]1CN(c2ncc(Cl)c(N3CC(C(=O)NC(C)(C)c4cnc5ccccn45)C3)n2)C[C@H](C)N1C [Example 95, 1-{5-chloro-2-[(3S,5S)-3,4,5-trimethylpiperazin-1-yl]pyrimidin-4-yl}-N-(2-{imidazo[1,2-a]pyridin-3-yl}propan-2-yl)azetidine-3-carboxamide]",34,150,1.51,17,–
"CC1CN(c2ncc(F)c(N3CC(C(=O)NC(C)(C)c4cnc5ccccn45)C3)n2)C[C@H](C)N1C (stereo partly drawn) [Example 96, 1-{5-fluoro-2-[(3S,5S)S-3,4,5-trimethylpiperazin-1-yl]pyrimidin-4-yl}-N-(2-{imidazo[1,2-a]pyridin-3-yl}propan-2-yl)azetidine-3-carboxamide]",130,> 910,> 3,31,–
"C[C@H]1CN(c2ncc(Cl)c(N3CCC(C(=O)NC(C)(C)c4cnc5ccccn45)CC3)n2)CCN1C [Example 101, 1-{5-chloro-2-[(3S)-3,4-dimethylpiperazin-1-yl]pyrimidin-4-yl}-N-(2-{imidazo[1,2-a]pyridin-3-yl}propan-2-yl)piperidine-4-carboxamide]",33,> 1000,1.74,310,"half-life ([5]; cassette dosing of 4 compounds): 5.4 h; bioavailability [5, 6]: 32%"
"C[C@H]1CN(C)CCN1c1ncc(Cl)c(N2CC(C(=O)N(C)C(C)(C)c3cnc4ccccn34)C2)n1 [Example 107, 1-{5-chloro-2-[(2S)-2,4-dimethylpiperazin-1-yl]pyrimidin-4-yl}-N-(2-{imidazo[1,2-a]pyridin-3-yl}propan-2-yl)-N-methylazetidine-3-carboxamide]",–,140,–,–,"half-life ([5]; cassette dosing of 4 compounds): 1.7 h; bioavailability [5, 6]: 37%"
"C[C@H]1CN(C)CCN1c1ncc(F)c(N2CC(C(=O)N(C)C(C)(C)c3cnc4ccccn34)C2)n1 [Example 108, 1-{2-[(2S)-2,4-dimethylpiperazin-1-yl]-5-fluoropyrimidin-4-yl}-N-(2-{imidazo[1,2-a]pyridin-3-yl}propan-2-yl)-N-methylazetidine-3-carboxamide]",–,200,0.967,–,–
O=C(NCc1nnc2ccccn12)C1CN(c2nc(N3CCCNCC3)ncc2Cl)C1 [Example 112],–,–,–,319,EC50 [3]: > 10000 nM
"CCN(CC)CCCC(C)Nc1ccnc2cc(Cl)ccc12 (centres unmarked) [chloroquine, reference compound]",–,–,–,–,"mice / smears parasite free ([1]; 4×50 mg/kg p.o., day 7): parasite-free"
